In series [1] the test system is Roundup Ready cotton event 1445. The series is described as follows: Field trial, cotton lint yield after glyphosate treatment (10 locations). The format is in vivo, Gossypium hirsutum. An excerpt: (§1) The field trials were arranged in a randomized split plot design with three replications and three treatments. The events were planted in two row, 30-foot plots. The treatments consisted of unsprayed, 64 oz/A (1.5 lb ae/A) Roundup Ultra® at the 4, 6, 10, 14-node stages, and 96 oz/A (2.25 lb ae/A) Roundup Ultra® at the 4, 6, 10, 14-node stages. A mid-season plant map was completed on ten plants per plot. Boll retention data was collected for the first and second fruiting positions of the first five fruiting nodes that provides a boll retention value scale of 0-10. A plant with a boll retention value equal to or greater than 3 on the 0-10 scale has value as a new glyphosate tolerant plant selection.
(§2) Yield is a measure of boll retention, cotton plants engineered for glyphosate tolerance that retain a substantial number of bolls in the first and second fruiting positions will maintain a yield advantage over cotton plants that are not as glyphosate tolerant. An effective dose of a glyphosate containing herbicide to control weeds in a field of MON 88913 comprises about 4 oz/A and may exceed 128 oz/A depending on the species of weed to be controlled and the stage of weed development. Glyphosate can be mixed with other herbicides to enhance the herbicidal activity against certain weed species.

Series [2] relates to cotton event MON 88913. The description is as above. The format is in vivo, Gossypium hirsutum.
Description: as §1, §2

Where [3] appears, read: glyphosate 1.5 lb ae/A (64 oz/A Roundup Ultra) at the 4, 6, 10, 14-node stages.
The mark [4] stands for this setting: glyphosate 2.25 lb ae/A (96 oz/A Roundup Ultra) at the 4, 6, 10, 14-node stages.

The text below walks through data of patent publication US8071735B2, “Cotton event MON 88913 and compositions and methods for detection thereof” (priority 2003, dated 2011).

Consider `O=C(O)CNCP(=O)(O)O` [Glyphosate, N-phosphonomethylglycine], for which the “Yield (lb/A) of 10 Locations, cotton lint” value was 1044.19 lb/A in series [1] (setting [3]), 831.47 lb/A in series [1] (setting [4]), 2587.61 lb/A in series [2] (setting [3]) and 2412.3 lb/A in series [2] (setting [4]).
